Experimental data taken from patent US8449896B2, “Pharmaceutical composition having improved solubility” (Daiichi Sankyo Company, Limited, priority 2009, dated 2013).

Assay: solubility of compound I in aqueous solutions
Format: physicochemical

Question: Which “solubility in a neutral aqueous solution” value (neutral aqueous solution (e.g., a neutral buffer)) does the source give for `CN1CCc2nc(C(=O)N[C@@H]3C[C@@H](C(=O)N(C)C)CC[C@@H]3NC(=O)C(=O)Nc3ccc(Cl)cn3)sc2C1` [compound I, N^1-(5-chloropyridin-2-yl)-N^2-((1S,2R,4S)-4-[(dimethylamino)carbonyl]-2-{[(5-methyl-4,5,6,7-tetrahydrothiazolo[5,4-c]pyridin-2-yl)carbonyl]amino}cyclohexyl)ethanediamide] here?
Answer: The value was “reduced solubility”.

Question: What about the “solubility in a strongly acidic aqueous solution” value (strongly acidic aqueous solution) of the same compound?
Answer: The value was “favorable solubility”.
